21 compounds from ChEMBL document CHEMBL3870307, “5-HT7 receptor modulators: Amino groups attached to biphenyl scaffold determine functional activity” (Eur J Med Chem, 2016) can be followed below.

For test [1], the target named is T1, 5-hydroxytryptamine receptor 7 (Homo sapiens, UniProt P34969). As to the kind of experiment: Agonist activity at human 5-HT7R expressed in HEK293 cells assessed as induction of cAMP levels at 10 uM treated for 10 mins measured after 30 mins by D2-dye based fluorescence assay relative to serotonin. The class given is functional, cell-based. On the technique in general: Cyclic AMP is a second messenger, typically raised through Gs and lowered through Gi signalling.
T1 sequence (P34969 whole entry): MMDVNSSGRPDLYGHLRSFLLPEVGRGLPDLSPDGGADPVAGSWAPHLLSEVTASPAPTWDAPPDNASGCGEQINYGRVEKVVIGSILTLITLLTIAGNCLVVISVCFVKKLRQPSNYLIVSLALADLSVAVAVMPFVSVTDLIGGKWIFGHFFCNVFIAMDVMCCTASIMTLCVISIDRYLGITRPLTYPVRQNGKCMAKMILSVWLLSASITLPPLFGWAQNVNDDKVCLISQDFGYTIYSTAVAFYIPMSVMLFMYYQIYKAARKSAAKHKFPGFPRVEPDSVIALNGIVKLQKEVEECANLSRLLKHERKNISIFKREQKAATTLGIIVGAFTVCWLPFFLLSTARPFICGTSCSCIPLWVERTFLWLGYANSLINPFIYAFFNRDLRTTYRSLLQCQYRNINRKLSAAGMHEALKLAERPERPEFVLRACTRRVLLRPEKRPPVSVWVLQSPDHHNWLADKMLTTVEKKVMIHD

Test [2] addresses T1, 5-hydroxytryptamine receptor 7. As to the kind of experiment: Displacement of [3H]D-lysergic acid diethylamide from 5HT7R (unknown origin) expressed in HEK293 cell membranes incubated for 1.5 hrs in absence of light by liquid scintillation counting. On the technique in general: In a radioligand displacement assay an active substance lowers the binding of a labelled ligand.

Test [3] has the same target. Briefly: Antagonist activity at human 5-HT7R expressed in HEK293 cells assessed as inhibition of serotonin stimulated cAMP levels at 10 uM preincubated for 10 mins followed by serotonin stimulation after 30 mins by D2-dye based fluorescence assay. It is filed as functional, cell-based.
Test [4] shares this target. As to the kind of experiment: Displacement of [3H]D-lysergic acid diethylamide from 5HT7R (unknown origin) expressed in CHO-K1 cell membranes incubated for 1.5 hrs in absence of light by liquid scintillation counting.
Test [5] shares this target. As to the kind of experiment: Agonist activity at human 5-HT7R expressed in HEK293 cells assessed as induction of cAMP levels treated for 10 mins measured after 30 mins by D2-dye based fluorescence assay. The class given is functional, cell-based.
For test [6] the target is unchanged. As to the kind of experiment: Antagonist activity at human 5-HT7R expressed in HEK293 cells assessed as inhibition of serotonin stimulated-cAMP levels preincubated for 10 mins followed by serotonin stimulation after 30 mins by D2-dye based fluorescence assay. It is filed as functional, cell-based.
Test [7] shares this target. Briefly: Antagonist activity at human 5-HT7R expressed in HEK293 cells assessed as inhibition of serotonin stimulated-cAMP levels at 100 uM preincubated for 10 mins followed by serotonin stimulation after 30 mins by D2-dye based fluorescence assay. It is filed as functional, cell-based.

SMILES strings stand for the structures. Active and inactive are the calls of the source. The calls are words filed in the database; no cut-off is given here.

As usually defined, the Emax is the size of the effect at its maximum, as opposed to the concentration needed. Usually Ki stands for the equilibrium dissociation constant of an inhibitor or competing ligand from its target. Low values mean a stronger hold on the target, high ones a looser hold on the target. With `COc1ccccc1-c1cc(CN(C)C)ccc1OC`, the Emax in test [1] stood at 28.8%. Further, in test [2], the affinity corresponds to a Ki of 1020 nM. Moreover, the Imax in test [3] was 4.54%.
As to `COc1ccccc1-c1cccc(CN2CCC(C)CC2)c1`, the Emax in test [1] was 8.59%. In test [2], the Ki is 1040 nM. Besides, the Imax in test [3] was determined as 39%.
With `CNCc1ccc(OC)c(-c2ccccc2OC)c1`, the Emax in test [1] is 11%. For the same compound, the Ki in test [2] was 648 nM. In test [3], the Imax is 2.25%.
`COc1ccccc1-c1cccc(CN2CCN(c3ccccc3OC)CC2)c1` gave a Ki in test [4] of 15 nM.
Turning to `COc1ccccc1-c1cc(CN(C)C)cc2c1OCO2`, the Emax in test [1] is 3.97%. In test [2], this compound returned a Ki of 772 nM. In addition, the Imax in test [3] worked out at 13.5%.
As to `COc1ccccc1-c1cc(CN(C)C)ccc1Cl`, the Emax in test [1] came to 27.6%. For the same compound, the Ki in test [2] is 18 nM. Moreover, the Imax in test [3] came to 10.3%.
The term EC50 denotes the midpoint of the concentration-response curve. In the case of `CNCc1ccc(C)c(-c2ccccc2OC)c1`, the EC50 in test [5] turned out to be 3200 nM. Further, in test [1], the Emax was 55.5%. The compound further returned a Ki in test [2] of 15 nM. In addition, the Imax in test [3] was determined as 2.49%.
In the case of `COc1ccccc1-c1cc(CN(C)C)ccc1C`, the Emax in test [1] was determined as 33.3%. The affinity in test [2], expressed as Ki, was 23 nM. Moreover, in test [3], the Imax was determined as 6.61%.
By IC50 is commonly meant the midpoint of a concentration-inhibition curve. Regarding `COc1ccccc1-c1cc(CN2CCN(c3ccccc3OC)CC2)cc2c1OCO2`, the IC50 in test [6] came to 19800 nM. Also, in test [1], the Emax was -1.56%. Also, the inhibition entry in test [7] was “Active”. For the same compound, affinity in test [2] was put at a Ki of 34 nM. Besides, in test [3], the Imax came out at 93.7%.
In the case of `CNCc1ccc(Cl)c(-c2ccccc2OC)c1`, the EC50 in test [5] turned out to be 550 nM. For the same compound, the Emax in test [1] is 66.8%. Besides, the affinity in test [2], expressed as Ki, was 5.2 nM. The Imax in test [3] is 4.66%.
As to `CNCc1cccc(-c2ccccc2OC)c1`, in test [1], the Emax is 24.5%. For the same compound, in test [2], the Ki was 226 nM. Also, the Imax in test [3] is -0.87%.
For `COc1ccccc1-c1cc(CN2CCC(C)CC2)cc2c1OCO2`, in that order: 7.6%, 691 nM and 15.6%.
As to `CC1CCN(CC[C@H]2CCCN2S(=O)(=O)c2cccc(O)c2)CC1`, the Imax in test [3] was 100%.
With `COc1ccccc1-c1cc(CN2CCN(c3ccccc3OC)CC2)ccc1OC`, the IC50 in test [6] was 5570 nM. The Emax in test [1] is -2.42%. Also, the inhibition entry in test [7] was “Active”. The compound also yielded a Ki in test [2] of 79 nM. In addition, in test [3], the Imax is 91.6%.
For `COc1ccccc1-c1cc(CN2CCN(c3ccccc3OC)CC2)ccc1Cl`, in that order: 23100 nM, -7.72%, “Active”, 73 nM and 91%.
As for `COc1ccccc1-c1cc(CN2CCC(C)CC2)ccc1C`, the Emax in test [1] was found to be 2.53%. The affinity in test [2] corresponds to a Ki of 1120 nM. In addition, in test [3], the Imax is 29%.
Regarding `COc1ccccc1-c1cccc(CN(C)C)c1`, in test [1], the Emax turned out to be 15.4%. In test [2], this compound gave a Ki of 126 nM. The Imax in test [3] is 40.8%.
As for `CNCc1cc2c(c(-c3ccccc3OC)c1)OCO2`, the Emax in test [1] stood at 13.6%. Further, the Ki in test [2] stood at 1480 nM. In test [3], the Imax turned out to be 8.4%.
With `COc1ccccc1-c1cc(CN2CCC(C)CC2)ccc1Cl`, the Emax in test [1] was -14.4%. The compound also came in with a Ki in test [2] of 389 nM. Moreover, the Imax in test [3] was 52.3%.
As for `COc1ccccc1-c1cc(CN2CCN(c3ccccc3OC)CC2)ccc1C`, the IC50 in test [6] was 6350 nM. For the same compound, in test [1], the Emax amounted to 14%. For the same compound, the inhibition result in test [7] is “Active”. Affinity in test [2] was put at a Ki of 18 nM. In addition, the Imax in test [3] turned out to be 69.3%.
As to `COc1ccccc1-c1cc(CN2CCC(C)CC2)ccc1OC`, the Emax in test [1] was -1.14%. The compound further displayed a Ki in test [2] of 3060 nM. Also, the Imax in test [3] was 7.74%.
